In ChEMBL document CHEMBL5360560, “Anti-Vibrio potential of natural products from marine microorganisms” (Eur J Med Chem, 2023):
≈ marks a conversion by molar mass, not a printed value.

Assays:
Vibrio parahaemolyticus [1] = experiment: Antimicrobial activity against Vibrio parahaemolyticus assessed as bacterial growth inhibition by broth dilution assay; assay type: functional
Vibrio anguillarum [2] = experiment: Antimicrobial activity against Vibrio anguillarum assessed as bacterial growth inhibition by broth dilution assay; assay type: functional
Vibrio alginolyticus [3] = experiment: Antimicrobial activity against Vibrio alginolyticus assessed as bacterial growth inhibition by broth dilution assay; assay type: functional
Vibrio harveyi [4] = experiment: Antimicrobial activity against Vibrio harveyi BB120 assessed as bacterial growth inhibition by bioluminescence based Quorum-Sensing assay; assay type: functional, organism-based
Vibrio harveyi [5] = experiment: Antimicrobial activity against Vibrio harveyi QDIO-7 assessed as bacterial growth inhibition by microplate reader assay; assay type: functional
Vibrio parahaemolyticus [6] = experiment: Antimicrobial activity against Vibrio parahaemolyticus assessed as bacterial growth inhibition; assay type: functional
Vibrio anguillarum [7] = experiment: Antimicrobial activity against Vibrio anguillarum assessed as zone of inhibition per disc at 100 ug measured after 24 hrs by disc diffusion assay; assay type: functional; conditions: read-out: IZ
Vibrio anguillarum [8] = experiment: Antibacterial activity against Vibrio anguillarum assessed as bacterial growth inhibition; assay type: functional
Vibrio harveyi [9] = experiment: Antibacterial activity against Vibrio harveyi assessed as bacterial growth inhibition; assay type: functional
Vibrio anguillarum [10] = experiment: Antimicrobial activity against Vibrio anguillarum assessed as bacterial growth inhibition; assay type: functional
Vibrio harveyi [11] = experiment: Antimicrobial activity against Vibrio harveyi assessed as bacterial growth inhibition; assay type: functional
Vibrio harveyi [12] = experiment: Antimicrobial activity against Vibrio harveyi assessed as bacterial growth inhibition by microplate reader assay; assay type: functional
Vibrio anguillarum [13] = experiment: Antimicrobial activity against Vibrio anguillarum assessed as bacterial growth inhibition by microplate reader assay; assay type: functional
Vibrio alginolyticus [14] = experiment: Antimicrobial activity against Vibrio alginolyticus assessed as zone of inhibition; assay type: functional
Vibrio parahaemolyticus [15] = experiment: Antimicrobial activity against Vibrio parahaemolyticus assessed as zone of inhibition; assay type: functional
Vibrio vulnificus = experiment: Antimicrobial activity against Vibrio vulnificus MCCC E1758 assessed as bacterial growth inhibition by resazurin dye based assay; assay type: functional
Vibrio anguillarum [16] = experiment: Antimicrobial activity against Vibrio anguillarum QDIO-6 assessed as bacterial growth inhibition by microtiter plate assay; assay type: functional
Vibrio parahaemolyticus [17] = experiment: Antimicrobial activity against Vibrio parahaemolyticus ATCC 17802 assessed as bacterial growth inhibition by microplate reader assay; assay type: functional

C=C(C)[C@H]1COc2c(C)cc3oc4c(C[C@H](OC(C)=O)C(C)(C)O)ccc(O)c4c(=O)c3c2[C@@H]1O
MIC (Vibrio parahaemolyticus [1]): 1.56 µM | MIC (Vibrio anguillarum [2]): 1.56 µM | MIC (Vibrio alginolyticus [3]): 1.56 µM

O=C(/C=C/CCl)O[C@@H]1COC(=O)C1
IC50 (Vibrio harveyi [4]): 5.6 µM

O=C1CC[C@@H](c2ccc(O)c3c2C(=O)CCC3=O)c2cccc(O)c21
MIC (Vibrio harveyi [5]): 4 µg/mL

COc1cc(O)c2c(c1)C(=O)C1=C(C2=O)[C@H](O)[C@@H](O)[C@@](C)(O)C1
MIC (Vibrio parahaemolyticus [6]): 25 µM

O=C1N[C@H](Cc2ccccc2)C(=O)N2CCC[C@@H]12
zone of inhibition at 100 µg/disc (Vibrio anguillarum [7]): 24 mm

O=C1N[C@@H](Cc2ccccc2)C(=O)N2CCC[C@@H]12
zone of inhibition at 100 µg/disc (Vibrio anguillarum [7]): 25 mm

CC(C)(O)[C@H](O)CC[C@]1(C)[C@@H](O)CC[C@@]2(C)[C@H]1CC[C@H]1Cc3c([nH]c4ccccc34)[C@@]12C
MIC (Vibrio parahaemolyticus [1]): 6.3 µM | MIC (Vibrio anguillarum [2]): 3.1 µM | MIC (Vibrio alginolyticus [3]): 3.1 µM

C[C@H](O)/C=C1/C(=O)O[C@H]([C@@H](C)O)[C@@H]1O
MIC (Vibrio anguillarum [8]): 0.5 µg/mL | MIC (Vibrio harveyi [9]): 32 µg/mL (≈ 158 µM)

C=C(C)[C@H]1COc2c(C)cc3oc4c([C@@H](OC)[C@@H](O)C(C)(C)O)ccc(O)c4c(=O)c3c2[C@@H]1OC(C)=O
MIC (Vibrio parahaemolyticus [1]): 1.56 µM | MIC (Vibrio anguillarum [2]): 1.56 µM | MIC (Vibrio alginolyticus [3]): 1.56 µM

C/C=C/CC/C=C/c1c(O)cc(CC=C(C)C)c(O)c1C=O
MIC (Vibrio anguillarum [10]): 65 µM | MIC (Vibrio harveyi [11]): 65 µg/mL (≈ 216 µM)

CCCCCc1cc(O)c2ccccc2n1
MIC (Vibrio harveyi [9]): 4 µg/mL (≈ 18.6 µM)

C[C@H]1CC[C@H]2[C@@H](C=C[C@H](C)[C@]2(C)C(=O)CCO)[C@@H]1O
MIC (Vibrio harveyi [12]): 4 µg/mL | MIC (Vibrio anguillarum [13]): 4 µg/mL

CC(C)C[C@H]1NC(=O)[C@H]2C[C@H](O)CN2C1=O
inhibition zone (IZ) (Vibrio alginolyticus [14]): 22 mm | inhibition zone (IZ) (Vibrio parahaemolyticus [15]): 14 mm

C[C@@H](O)CCCCC[C@H](C)[C@@H]1C=CC(=O)O1
MIC (Vibrio parahaemolyticus [1]): 25 µM

CCOC(=O)Cc1cc(O)cc(O)c1C(=O)CC
MIC (Vibrio vulnificus): 15.6 µg/mL (≈ 61.8 µM)

O=C1N[C@H](Cc2ccccc2)C(=O)N2C[C@@H](O)C[C@@H]12
inhibition zone (IZ) (Vibrio alginolyticus [14]): 20 mm | inhibition zone (IZ) (Vibrio parahaemolyticus [15]): 12 mm

CC[C@@H](C)[C@H](/C=C/C(=C/CC[C@@H](C)C[C@H](C)[C@H]1C[C@@H](O)[C@H](C)CC/C=C/[C@H](C)C/C=C(\C)[C@H](O)CCC[C@@H](O)[C@H](C)/C=C/C(=O)O1)CO)OC(C)=O
MIC (Vibrio parahaemolyticus [6]): 1.56 µg/mL

CC[C@@H](C)[C@@H](O)/C=C/C(C)=C/CC[C@@H](C)C[C@H](C)[C@H]1C[C@@H](O)[C@H](C)CC/C=C/[C@H](C)C/C=C(\C)[C@H](O)CCC[C@@H](O)[C@H](C)/C=C/C(=O)O1
MIC (Vibrio parahaemolyticus [6]): 1.56 µg/mL

CC(C)=CCc1ccc(O)c(C=O)c1
MIC (Vibrio anguillarum [10]): 65 µM | MIC (Vibrio harveyi [11]): 65 µg/mL (≈ 342 µM)

CC(C)C[C@@H]1NC(=O)[C@H]2C[C@H](O)CN2C1=O
inhibition zone (IZ) (Vibrio alginolyticus [14]): 20 mm | inhibition zone (IZ) (Vibrio parahaemolyticus [15]): 12 mm

CC[C@H]1/C=C/CC[C@@H](C)[C@H](O)C[C@H]([C@@H](CO)C[C@H](C)CC[C@H](O)[C@H](C)/C=C/[C@H](O)C(C)C)OC(=O)/C=C/[C@](C)(O)[C@H](O)CCC[C@@H](O)[C@H](C)CC1
MIC (Vibrio parahaemolyticus [6]): 1.56 µg/mL

CO[C@@H]1CC(=O)/C=C/C[C@@H](C)OC(=O)C[C@H](O)C1
MIC (Vibrio parahaemolyticus [1]): 25 µM

CC(C)CCC[C@@](C)(O)c1ccc(C(=O)O)cc1O
MIC (Vibrio parahaemolyticus [6]): 5 µM | MIC (Vibrio anguillarum [8]): 10 µM

C[C@H]1[C@H]([C@@]2(C)CCC([C@](C)(O)CO)O2)CC[C@@]1(C)O (stereo partly specified)
inhibition zone (IZ) (Vibrio parahaemolyticus [15]): 6.2 mm

COc1ccc(O)c(-c2cc(OC)ccc2O)c1
MIC (Vibrio parahaemolyticus [1]): 10 µg/mL

C[C@@H]1CCCCC2=C(O)C(=O)C[C@H]2C(=O)O1
MIC (Vibrio anguillarum [16]): 2 µg/mL

CCOC(=O)Cc1cc(OC)cc(OC)c1C(=O)CC
MIC (Vibrio vulnificus): 15.6 µg/mL (≈ 55.7 µM)

O=C1c2cc(O)cc(O)c2C(=O)c2c1cc(O)c(C(CO)CCO)c2O (stereo unspecified)
MIC (Vibrio parahaemolyticus [17]): 12 µg/mL

CC[C@@H](C)[C@@H](O)/C=C/C=C/CC[C@@H](C)C[C@H](C)[C@H]1C[C@@H](O)[C@H](C)CC/C=C/[C@H](C)C/C=C(\C)[C@H](O)CCC[C@@H](OC)[C@H](C)/C=C/C(=O)O1
MIC (Vibrio parahaemolyticus [6]): 1.56 µg/mL

CCC[C@@H]1C(C)=C[C@@H]2C[C@H](C)CC[C@H]2[C@]1(C)C(=O)C1=C(O)C(=O)NC1=O
MIC (Vibrio anguillarum [10]): 12.5 µg/mL

CC(O)C(Cl)C1=C[C@H]([C@H](C)O)OC1=O (stereo partly specified)
MIC (Vibrio anguillarum [8]): 0.5 µg/mL | MIC (Vibrio harveyi [9]): 32 µg/mL (≈ 145 µM)

C/C(=C\[C@H]1OC(=O)[C@H](C)[C@@H]1C)[C@H]1CCC2=C3C=CC4=CC(=O)CC[C@]4(C)[C@H]3CC[C@@]21C
MIC (Vibrio parahaemolyticus [1]): 25 µg/mL | MIC (Vibrio anguillarum [2]): 25 µg/mL | MIC (Vibrio alginolyticus [3]): 25 µg/mL

C[C@H]1C[C@H](O)[C@H]2[C@@H](C=C[C@@](C)(O)[C@]2(C)C(=O)CCO)C1
MIC (Vibrio harveyi [12]): 4 µg/mL | MIC (Vibrio anguillarum [13]): 4 µg/mL

COC(=O)C[C@H](O)COC(=O)/C=C/CCl
IC50 (Vibrio harveyi [4]): 14.6 µM

C=C(C)[C@H]1COc2c(C)cc3oc4c([C@@H](OC)[C@@H](O)C(=C)C)ccc(O)c4c(=O)c3c2[C@@H]1OC(C)=O
MIC (Vibrio parahaemolyticus [1]): 1.56 µM | MIC (Vibrio anguillarum [2]): 1.56 µM | MIC (Vibrio alginolyticus [3]): 1.56 µM

O=C1c2cccc(O)c2C(=O)c2c1cc(O)c(C(CO)CCO)c2O (stereo unspecified)
MIC (Vibrio parahaemolyticus [17]): 24 µg/mL
